By MTD is commonly meant the largest dose that counted as tolerated.

Experimental findings from patent US20240101585A1, “HETEROAROMATIC PHOSPHONIUM SALTS AND THEIR USE TREATING CANCER” (FLORATEK PHARMA AG, priority 2021, published 2024) are described below.

SMILES strings stand for the structures.

The test system of one data set is KM12. As to the kind of experiment: CellTiter-Glow Luminescent Cell Viability assay, KM12 (colon). Format: cell-based. The settings on record: Homo sapiens, 72 h, absolute IC50 (T/C=50%), read-out: IC50 against KM12. How it is done: (§1) Antitumor activity of the compounds and doxorubicin as a positive control was assessed by using the CellTiter-Glow® Luminescent Cell Viability assay (Promega #G7572) according to the manufacturer's instructions. The compounds were tested at 5 or 6 concentrations in half-log increments (highest concentration 30 μM or 100 μM) in duplicate or triplicate well conditions.
(§2) Tumor cells were grown at 37° C. in a humidified atmosphere with 5% CO2 in RPMI 1640 or DMEM medium, supplemented with 10% (v/v) fetal calf serum and 50 μg/ml gentamicin for up to 20 passages, and were passaged once or twice weekly. Cells were harvested using TrypLE or PBS buffer containing 1 mM EDTA, and the percentage of viable cells was determined using a CASY Model TI cell counter (OMNI Life Science). Cells were harvested from exponential phase cultures, counted and plated in 96 well flat-bottom microtiter plates at a cell density depending on the cell line's growth rate (4,000-20,000 cells/well depending on the cell line's growth rate, up to 60,000 for hematological cancer cell lines) in RPMI 1640 or DMEM medium supplemented with 10% (v/v) fetal calf serum and 50 μg/ml gentamicin (140 μl/well). […] Viability of cells was quantified by or CellTiter-Glow® Luminescent Cell Viability assay (Promega #G7572). Luminescence was measured with a microplate luminometer (Promega or PerkinElmer. […]
For orientation: ATP-based viability assays read luminescence as a measure of living cells.

The next data set concerns A375. As to the kind of experiment: CellTiter-Glow Luminescent Cell Viability assay, A375 (melanoma). It is filed as cell-based. The settings on record: Homo sapiens, A-375, 72 h, absolute IC50 (T/C=50%), read-out: IC50 against A375. As for the experimental part:
as §1, §2

The test system of the next data set is MDA-MB-468. The data set is described as follows: CellTiter-Glow Luminescent Cell Viability assay, MDA-MB-468 (breast). It is filed as cell-based. Conditions: Homo sapiens, 72 h, absolute IC50 (T/C=50%), read-out: IC50 against MDA-MB-468. How it is done:
as §1, §2

For another data set, the system named is SK-Mel-5. The data set is described as follows: CellTiter-Glow Luminescent Cell Viability assay, SK-Mel-5 (melanoma). It is filed as cell-based. Conditions: Homo sapiens, 72 h, absolute IC50 (T/C=50%), read-out: IC50 against SK-Mel-5. How it is done:
as §1, §2

For data set [1], the system named is breast and colon carcinomas, lymphoma and melanoma cancer cell growth. As to the kind of experiment: CellTiter-Glow cell viability assay, cancer cell line panel (summary statement). It is filed as cell-based. Conditions: lymphoma and melanoma cell lines of Table 2, read-out: IC50s, cancer cell growth inhibition. As for the experimental part:
as §1, §2

Data set [2] in a line: In vivo tolerability, maximum tolerated dose in nude mice. As for the experimental part: To assess the toxicity of the test compounds in vivo and to determine the maximum tolerated dose 4 BALB/c Nude male mice, 4-9 weeks old were injected intraperitoneally (i.p) with various doses of the drug or vehicle 2.5% DMSO/5% EtOH/20% PEG200 in saline. The volume of the injection was 5 ml/kg. The administered doses were confirmed by LC-UV or LC-MS/MS.
Mice were monitored for body weight before each injection and twice a day for clinical signs of toxicity.
All procedures related to animal handling, care and the treatment in the study were performed according to the guidelines of the Association for Assessment and Accreditation of Laboratory Animal Care (AAALAC).
In order to assess the in vivo toxicity of SND350 various doses of the drug were administered either as a single dose or repeat doses into nude mice.

The test system of a further data set is A2058. As to the kind of experiment: CellTiter-Glow Luminescent Cell Viability assay, A2058 (melanoma). It is filed as cell-based. Conditions: Homo sapiens, 72 h, absolute IC50 (T/C=50%), read-out: IC50 against A2058. How it is done: as §1, §2
The next data set has as its system Farage. The data set is described as follows: CellTiter-Glow Luminescent Cell Viability assay, Farage (lymphoma). The settings on record: 72 h, absolute IC50 (T/C=50%), read-out: IC50 against Farage. Format: cell-based. How it is done:
as §1, §2

The subject of the next data set is U937. As to the kind of experiment: CellTiter-Glow Luminescent Cell Viability assay, U937 (lymphoma). Format: cell-based. The settings on record: Homo sapiens, U-937, 72 h, absolute IC50 (T/C=50%), read-out: IC50 against U937. How it is done:
as §1, §2

On to `COc1c(O)cc(O)c2c(=O)cc(-c3ccc(CCCCC[P+](c4ccccc4)(c4ccccc4)c4ccccc4)cc3)oc12.[Br-]` [SND350, (5-(4-(5,7-dihydroxy-8-methoxy-4-oxo-4H-chromen-2-yl)phenyl)pentyl)triphenylphosphonium bromide], for which the IC50 with KM12 was 2800 nM; in the data set with A375, 8900 nM; in the data set on MDA-MB-468, 2800 nM; with SK-Mel-5 it was 2100 nM; in data set [1], under 10000 nM; with A2058 it was 6500 nM. The results for the IC50 with Farage and in the data set with U937 were 800 nM and 2900 nM, respectively. Moreover, the “tolerability of multiple administrations” value in data set [2] (i.p., qod for a total of 7 injections, 10 mg/kg/inj) is “well tolerated”. The maximal tolerated dose (MTD) in [2] (male, BALB/c Nude, mouse, in vivo, ip, single i.p. administration) came to 40 mg/kg.
